Patent publication US20240093150A1, “IMPROVED T-CELLS FOR CANCER THERAPY USING AMINO ACID STARVATION PATHWAYS” (UNIVERSITY HEALTH NETWORK, priority 2021, published 2024)

Assays:
CD8+ T cells [1] = test: Seahorse and ATP quantification in halo-treated mouse CD8+ T cells; assay type: cell-based; settings: for enhanced OXPHOS (basal OCR) in halo-treated cells: inhibitor added concurrent with Halofuginone (3-MA 2.5 mM)
P14 CD8+ T cells = test: Flow cytometry of activated mouse CD8+ T cells treated with halofuginone (cytokines, surface markers, phosphoflow, autophagosome staining); assay type: cell-based; settings: for IFN-γ in halo-treated cells: inhibitor concurrent with Halofuginone (3-MA 2.5 mM; Oligomycin 1 uM)
CD8+ T cells [2] = test: Ribo-Seq / RNA-seq gene expression profiling of halo-treated CD8+ T cells; assay type: cell-based, mouse; settings: halo vs vehicle
human CD8+ T cells = test: Human CD8+ T cells activated in the presence of halofuginone (Seahorse, flow cytometry, DMF5 TCR transduction); assay type: cell-based
Method: Peripheral blood mononuclear cells were obtained from healthy donors following institutional review board approval. Written informed consent was obtained from all donors who provided the samples. PBMCs were magnetically sorted for naïve CD8+ T cells (Miltenyi Biotec) and activated with CD3/CD28 Dynabeads (Invitrogen) at 1:1 ratio in complete IMDM for 5 days in the presence of Halo (12.5 ng/mL) or vehicle control. For DMF5 TCR transduction, purified naïve CD8+ T cells were stimulated with CD3/CD28 Dynabeads at 1:1 ratio in complete IMDM media and 100 IU/ml recombinant human IL-2. Two days after stimulation, T cells were infection with PG13-derived virus encoding DMF5 TCR and a truncated NGFR tag, separated by 2A sequences. Halofuginone (12.5 ng/mL) or vehicle control was added on days 0 and 2. Phenotype was analyzed on day 5.

CD8+ T cells [3] = test: Targeted mass spectrometry metabolic profile of halo-treated cells; assay type: cell-based, mouse; settings: halo vs vehicle
Method: Seahorse was performed as previously described (Saibil et al., 2019). ATP quantification was performed using a commercial kit (Sigma) according to the recommended protocol. For metabolic profiling of Halo treated cells, mass spectrometry was performed on metabolites extracted from cell pellets. Briefly, cell pellets were washed and snap frozen in 1 ml 80% methanol. Samples were probe sonicated for 5 seconds, power level 3 (Fisher Scientific Model 100 Sonicator). 5 ul of internal standard (Isotopically labeled amino acids, 1.25 mM, PN MSK-A2-1.2, Cambridge Isotope Laboratories) was added to a 100 ul aliquot of supernatant. 10 ul of this solution was diluted in 990 ul of buffer containing 95% acetonitrile, 5% 20 mM ammonium carbonate (pH 9.8). Quality control samples (QCs) were prepared by pooling 100 μl of each sample. All samples including QCs, where then analyzed by selected reaction monitoring (SRM) using a Waters XBridge Amide 1.0×50 mm, 3.5 μm column and a 10 mM ammonium carbonate (pH 10) acetonitrile buffer system coupled with a Sciex Qtrap 5500 triple quadrupole linear ion trap tandem mass spectrometer. The data acquisition included 317 transitions. Data were captured using Analyst, version 1.6.2 software (Sciex); peak integration was performed using Skyline, version 4.1 (Pino et al., 2020). […]

[4] = Halo 50 ng/mL last 48 hours, vs vehicle

For `NC1(C(=O)O)CC2CCC1C2` (stereo not shown) [BCH], the “enhanced OXPHOS (basal OCR) in halo-treated cells” value (CD8+ T cells [1]) was “did not affect”, the “halo-induced p-mTOR increase in the presence of inhibitor” value (P14 CD8+ T cells; halo-treated cells plus BCH) was “reversed” and the “expression of 4-1BB, Granzyme B and IFN-γ in halo-treated cells” value (P14 CD8+ T cells; inhibitor added concurrent with Halofuginone (Rapamycin 20 nM)) was “inhibition of expression”.

With `CC[C@H]1/C=C/C=C/C[C@@H](C)[C@H](O)[C@@](C)(O)C(=O)[C@@H](C)[C@H](O)[C@@H](C)C(=O)[C@@H](C)[C@H](O)[C@@H](C)/C=C/C(=O)O[C@@H]2[C@H](C)[C@H](CC1)O[C@]1(CC[C@H](C)[C@H](C[C@@H](C)O)O1)[C@H]2C` [oligomycin] the “IFN-γ in halo-treated cells” value (P14 CD8+ T cells) was “marked reduction”.

`CCOC(=O)[C@@]1(CCCCCCOc2ccc(Cl)cc2)CO1` [etomoxir] was tested, and the “effect on OCR in halo-treated cells” value (CD8+ T cells [1]; Etomoxir 4 μm injected in Seahorse) was “minimal effects”.

In the case of `Cn1cnc(N)c2ncnc1-2` [3MA], the “OXPHOS in vehicle-treated cells” value (CD8+ T cells [1]; 3-MA 2.5 mM) is reported as “no effect”, the “enhanced OXPHOS (basal OCR) in halo-treated cells” value (CD8+ T cells [1]) is reported as “entirely abrogated” and the “4-1BB or granzyme B expression in halo-treated cells” value (P14 CD8+ T cells; cultured in the presence of 3MA 2.5 mM) is reported as “no difference”. For the same compound, the “IFN-γ in halo-treated cells” value (P14 CD8+ T cells) was “marked reduction”.

For `O=C(CC1NCCCC1O)Cn1cnc2cc(Br)c(Cl)cc2c1=O` (stereo not shown) [halofuginone], the “4-1BB expression (RNA)” value (CD8+ T cells [2]) was “up-regulated”, the “Trm-associated genes, transcriptionally or translationally” value (CD8+ T cells [2]) was “very few of the Trm-associated genes were up-regulated” and the “electron transport chain (ETC) complex genes” value (CD8+ T cells [2]) was “increased both transcription and translation of all five complexes”. For the same compound, the “genes associated with glycolysis, TCA cycle, fatty acid oxidation” value (CD8+ T cells [2]) was “Increased enrichment of genes associated with glycolysis and the TCA cycle, but not fatty acid oxidation”, the “ribosomal-associated Bhlhe40 transcripts” value (CD8+ T cells [2]) was “marked increase” and the CD69 gene expression (CD8+ T cells [2]; among Trm-associated genes) was “one of the most upregulated genes”. The “expression of costimulatory and co-inhibitory molecules (transcriptional, translational and protein level)” value (CD8+ T cells [2]; panel of markers other than 4-1BB) was “not enhanced”, the ATP levels (CD8+ T cells [1]; [4]) was “increase” and the “OCR (oxygen consumption rate)” value (CD8+ T cells [1]; [4]) was “increase”. The “OCR:ECAR ratio” value (CD8+ T cells [1]; [4]) was “increase”, the “expression of 4-1BB, Granzyme B and CD98 in TCR+ T cells” value (human CD8+ T cells; DMF5 TCR transduced, Halofuginone 12.5 ng/mL, day 5, majority of patients) was “increased expression” and the OXPHOS (human CD8+ T cells; Halo 12.5 ng/mL, 5 days) was “enhanced”. For the same compound, the “expression of 4-1BB and CD98” value (human CD8+ T cells; Halo 12.5 ng/mL, 5 days) was “increasing”, the “transduction efficiency of the DMF5 TCR” value (human CD8+ T cells; Halofuginone 12.5 ng/mL added on days 0 and 2) was “did not inhibit” and the “levels of amino acids” value (CD8+ T cells [3]) was “primarily up-regulated”. For the same compound, the IFN-γ production (P14 CD8+ T cells; Halo 50 ng/mL for the last 48 hours of IL-2 expansion, vs vehicle) was “increased IFN-γ production”, the CD98 expression (P14 CD8+ T cells; [4]) was “enhanced” and the “TNF-α and IL-2 production” value (P14 CD8+ T cells; [4]) was “to a lesser extent, increased”. The “granzyme B expression” value (P14 CD8+ T cells; [4]) was “significant increase”, the “polyfunctionality (co-expression of IFN-γ, TNF-α, IL-2)” value (P14 CD8+ T cells; [4]) was “increased polyfunctionality” and the “surface expression of 4-1BB” value (P14 CD8+ T cells; flow cytometry, halo vs vehicle) was “increased percentage of cells expressing 4-1BB as well as a higher level of expression on a per cell basis”. For the same compound, the “autophagy (fluorescent staining of autophagosomes)” value (P14 CD8+ T cells; halo-treated cells vs vehicle) was “increased evidence of autophagy”, the p-mTOR (P14 CD8+ T cells; halo-treated cells vs vehicle) was “increase in p-mTOR” and the “surface markers of Tcm lineage (CD62L, CD44, CD127, CD25)” value (P14 CD8+ T cells; halo-treated cells, same as vehicle treated cells) was “CD62^Lo, CD44^Hi CD127^Lo and CD25^Hi”. The “CD69+ CD103+ double-positive cells” value (P14 CD8+ T cells; halo-treated, unlike vehicle-treated control cells) was “induced a population of CD69^+ CD103^+ double-positive cells”.
